The values that follow come from DBAASP.

Converted amounts (≈) assume the structure as drawn. “And” between values parts separate entries of the source, which are not always exact repeats. Identical values can stand only once.

Common to all, as to test: ≥ marks a high value that may be exact or a test limit, other limits are often not marked, values filed in µg/mL are converted to µM
Test [1] has as its system Bacillus subtilis IFO 3037.
The subject of test [2] is Pseudomonas aeruginosa IFO 12582.
The test system of test [3] is Escherichia coli IFO 14237.
The subject of test [4] is Staphylococcus aureus IFO 12732.
The test system of test [5] is Pseudomonas aeruginosa PAO1.
For test [6], the system named is Pseudomonas aeruginosa 910.
The test system of test [7] is Pseudomonas aeruginosa 919.
Test [8] relates to Pseudomonas aeruginosa 253.
Test [9] concerns Staphylococcus aureus ATCC 33592.
In test [10] the test system is Staphylococcus aureus ATCC 25923.
Test [11] has as its system Staphylococcus aureus ATCC 700699.
The subject of test [12] is Staphylococcus aureus ATCC BAA-44.
Test [13] relates to Klebsiella pneumoniae ATCC 27736.
Test [14] has as its system Staphylococcus aureus ATCC 29213.
In test [15] the test system is Candida parapsilosis ATCC 22019.
Test [16] has as its system Escherichia coli ATCC 25922.
Test [17] deals with Escherichia coli ATCC 9637.
The test system of test [18] is Staphylococcus aureus ATCC 700698.
Test [19] relates to Cryptococcus neoformans.
Test [20] relates to Bacillus subtilis ATCC 6633.
Test [21] has as its system Pseudomonas aeruginosa ATCC BAA-427.
Test [22] has as its system Candida albicans ATCC 10231.
Test [23] concerns Bacillus subtilis 168 HT.
Test [24] concerns Staphylococcus haemolyticus 527.
The subject of test [25] is Escherichia coli K12 MG1655.
The subject of test [26] is Staphylococcus aureus ST88.
The subject of test [27] is Staphylococcus aureus USA 300 LAC.
Test [28] concerns Klebsiella pneumoniae ATCC 13883.
For test [29], the system named is Pseudomonas aeruginosa NBRC 12582.
Test [30] has as its system Escherichia coli NBRC 14237.
The subject of test [31] is Saccharomyces cerevisiae NBRC 10217.
The test system of test [32] is Staphylococcus aureus NBRC 12732.
Test [33] relates to Aspergillus oryzae NBRC 100959.
Test [34] deals with Staphylococcus epidermidis NBRC 12993.
The test system of test [35] is Micrococcus luteus NBRC 3333.
Test [36] deals with Escherichia coli NBRC 3972.
In test [37] the test system is Candida viswanathii NBRC 10321.

Regarding `CC[C@H](C)[C@H](NC(=O)[C@H](CC(N)=O)NC(=O)[C@H](CC(C)C)NC(=O)[C@H](CCCCN)NC(=O)[C@@H](NC(=O)[C@@H](NC(=O)[C@H](CC(=O)O)NC(=O)[C@@H](N)Cc1ccccc1)[C@@H](C)CC)[C@@H](C)O)C(=O)N[C@@H](CCCCN)C(=O)N[C@@H](CCCCN)C(=O)N[C@@H](CC(C)C)C(=O)N[C@H](C(=O)N[C@@H](CCCCN)C(=O)N[C@@H](C)C(=O)N[C@H](C(=O)N[C@H]1CSSC[C@@H](C(=O)N[C@@H](CCCCN)C(=O)N[C@H](C(=O)N[C@@H](CC(C)C)C(=O)N[C@@H](Cc2ccccc2)C(=O)N[C@@H](CC(=O)O)C(=O)N[C@@H](CCCCN)C(=O)N[C@@H](CCCCN)C(=O)N[C@@H](CCCCN)C(=O)N[C@@H](CCC(N)=O)C(=O)N[C@@H](CCC(=O)O)C(=O)O)C(C)C)NC(=O)[C@H](CCSC)NC(=O)[C@H](CO)NC(=O)[C@H](C)NC(=O)CNC(=O)[C@H](CCCCN)NC(=O)[C@H](CO)NC(=O)[C@H]([C@@H](C)CC)NC(=O)[C@H](C(C)C)NC(=O)[C@H](CCCCN)NC1=O)[C@@H](C)O)[C@@H](C)O` [FDITKLNIKKLTKATCKVISKGASMCKVLFDKKKQE], the minimal inhibitory concentration (MIC) was no less than 50 µM in [1], 25 µM (≈ 102 µg/mL) in test [2], 6.25 µM (≈ 25.5 µg/mL) in test [3] and 6.25 µM (≈ 25.5 µg/mL) in test [4].
`CC[C@H](C)[C@H](NC(=O)[C@@H](N)Cc1ccccc1)C(=O)N[C@@H](CCCCN)C(=O)N[C@@H](Cc1c[nH]c2ccccc12)C(=O)N[C@@H](CCCCN)C(=O)N[C@@H](CCCCN)C(=O)N[C@@H](CCCN=C(N)N)C(=O)N[C@@H](Cc1c[nH]c2ccccc12)C(=O)N[C@@H](Cc1c[nH]c2ccccc12)C(=O)N[C@@H](CCCCN)C(=O)N[C@@H](CCCCN)C(=O)N[C@@H](CCCN=C(N)N)C(=O)N[C@H](C(N)=O)[C@@H](C)O` [FIKWKKRWWKKRT]: the MIC in test [5] was 4 µM (≈ 7.56 µg/mL); in test [6] it was 8 µM (≈ 15.1 µg/mL); in test [7], no less than 32 µM; in [8], 16 µM (≈ 30.2 µg/mL).
For `CC[C@H](C)[C@H](NC(=O)[C@H](CCCN=C(N)N)NC(=O)CNC(=O)[C@H](CC(C)C)NC(=O)[C@H](CCCCN)NC(=O)[C@H](CCCCN)NC(=O)[C@H](Cc1c[nH]c2ccccc12)NC(=O)[C@H](Cc1ccccc1)NC(=O)[C@H](CO)NC(=O)[C@H](CCCCN)NC(=O)[C@@H](NC(=O)[C@@H](N)Cc1ccccc1)C(C)C)C(=O)N[C@@H](CC(C)C)C(N)=O` [FVKSFWKKLGRIL], the MIC in [9] was 12 µM (≈ 19.5 µg/mL); in test [10] it was 3.8 µM and 7.6 µM; in [11], 12 µM (≈ 19.5 µg/mL); in [12], 12 µM (≈ 19.5 µg/mL); in [13] it was 3.8 µM (≈ 6.16 µg/mL); in [14], 12 µM (≈ 19.5 µg/mL). The MIC was found to be 6 µM (≈ 9.73 µg/mL) in test [15]; 1.9 µM (≈ 3.08 µg/mL) in [16]; 6.25 µM (≈ 10.1 µg/mL) in [17]; 12 µM (≈ 19.5 µg/mL) in test [18]; 6 µM (≈ 9.73 µg/mL) in test [19]; 3.8 µM (≈ 6.16 µg/mL) in test [20]. Further, the figures for the minimal inhibitory concentration (MIC) in [21] and in [22] were 6.8 µM (≈ 11 µg/mL) and 6 µM (≈ 9.73 µg/mL), respectively.
Take `CC[C@H](C)[C@H](N)C(=O)N[C@H](C(=O)N[C@@H](CCCCN)C(=O)N[C@@H](CCCN=C(N)N)C(=O)N[C@@H](Cc1ccccc1)C(=O)N[C@@H](Cc1ccccc1)C(=O)N[C@@H](CCCN=C(N)N)C(=O)N[C@H](C(=O)N[C@@H](CO)C(=O)N[C@@H](Cc1ccc(O)cc1)C(=O)N[C@@H](CCCCN)C(=O)N[C@@H](CC(C)C)C(=O)N[C@@H](CCC(N)=O)C(=O)N[C@@H](CO)C(=O)N[C@@H](CC(C)C)C(=O)N[C@@H](CCCCN)C(=O)N[C@H](C(=O)N[C@H](C(=O)N[C@@H](CCCCN)C(=O)NCC(=O)N[C@@H](CCCCN)C(=O)N[C@@H](CCCN=C(N)N)C(=O)N[C@H](C(=O)N[C@@H](Cc1ccccc1)C(=O)N[C@H](C(=O)O)[C@@H](C)O)[C@@H](C)O)[C@@H](C)CC)[C@@H](C)CC)[C@@H](C)CC)C(C)C` [IVKRFFRISYKLQSLKIIKGKRTFT]: the MIC was 5.3 µM (≈ 16.3 µg/mL) in test [23], 5.3 µM (≈ 16.3 µg/mL) in test [24], 10.5 µM (≈ 32.3 µg/mL) in test [25] and no less than 100 µM in test [26].
Regarding `CC[C@H](C)[C@H](N)C(=O)N[C@@H](Cc1c[nH]c2ccccc12)C(=O)N[C@@H](Cc1c[nH]c2ccccc12)C(=O)N[C@@H](Cc1c[nH]c2ccccc12)C(=O)N[C@@H](Cc1c[nH]c2ccccc12)C(=O)N[C@@H](CC(C)C)C(=O)N[C@@H](CCCN=C(N)N)C(=O)N[C@@H](CCCCN)C(N)=O` [IWWWWLRK], the minimal inhibitory concentration (MIC) in test [27] was 3.1 µM (≈ 3.94 µg/mL); in [16], 12.5 µM (≈ 15.9 µg/mL); in test [28] it was 17.7 µM (≈ 22.5 µg/mL).
Consider `CSCC[C@H](NC(=O)CNC(=O)[C@@H](NC(=O)[C@H](CCCCN)NC(=O)[C@H](C)NC(=O)CNC(=O)[C@@H](NC(=O)[C@H](CCCCN)NC(=O)[C@H](C)NC(=O)[C@H](C)NC(=O)[C@H](CCCCN)NC(=O)[C@H](CCCCN)NC(=O)[C@H](CC(C)C)NC(=O)[C@H](Cc1ccccc1)NC(=O)[C@H](CC(N)=O)NC(=O)[C@H](CC(C)C)NC(=O)[C@H](Cc1ccccc1)NC(=O)[C@H](CCCCN)NC(=O)CNC(=O)CNC(=O)[C@@H](N)CCCCN)C(C)C)C(C)C)C(=O)N[C@@H](C)C(=O)N[C@@H](C)C(=O)N[C@@H](CC(C)C)C(=O)NCC(=O)O` [KGGKFLNFLKKAAKVGAKVGMAALG], for which the MIC turned out to be 6.25 µM (≈ 15.7 µg/mL) in test [29], 3.12 µM (≈ 7.83 µg/mL) in [30], 6.25 µM (≈ 15.7 µg/mL) in test [31] and 3.12 µM (≈ 7.83 µg/mL) in [32].
Turning to `CSCC[C@H](NC(=O)[C@H](CCCCN)NC(=O)[C@@H](N)CCCN=C(N)N)C(=O)N[C@@H](CCCCN)C(=O)N[C@@H](CCCN=C(N)N)C(=O)N[C@H](C(=O)N[C@@H](Cc1c[nH]c2ccccc12)C(=O)N[C@@H](CCCCN)C(=O)N[C@@H](CCCN=C(N)N)C(=O)N[C@@H](Cc1ccccc1)C(=O)N[C@@H](CCCCN)C(=O)N[C@@H](CC(C)C)C(=O)O)C(C)C` [RKMKRVWKRFKL], the MIC was 14.9 µM (≈ 25 µg/mL) in test [33]; 14.9 µM (≈ 25 µg/mL) in [34]; 29.8 µM (≈ 50 µg/mL) in test [35]; no less than 239 µM in [36]; 14.9 µM (≈ 25 µg/mL) in test [37].
